The source of these data is paper PMC6562610, “Inhibition of Hedgehog Signaling in Fibroblasts, Pancreatic, and Lung Tumor Cells by Oxy186, an Oxysterol Analogue with Drug-Like Properties” (Cells, 2019).

One experiment relates to H2030 cells. Nature of the experiment: Cell counting assay, H2030. It is filed as cell-based, human. As to the method: A549 and H2030 cells cultured in 12-well plates at 20% confluence were treated with Oxy186, HPI-1, Gant61, or GDC0449 for 96 hours and then trypsinized and suspended in fresh medium. An aliquot of cell suspension was applied to a hemocytometer and counted under a microscope.
Figure 6 Inhibition of human pancreatic and lung cancer cell proliferation by Oxy186. (a,c) A549, (b) and (d) H2030, (e) PANC-1, and (f) CAPAN-1 cells were treated with the compounds as indicated in RPMI 1640 (a–d) or DMEM (e,f) containing 5% FBS for 96 h and then were trypsinized and counted. Data from a representative experiment are reported as the mean of triplicate determinations ± SD (* p < 0.05 vs. Control; ** p < 0.01 vs. control).

The test system of experiment [1] is endogenous Gli activity in Sufu-/- cells. Nature of the experiment: Gli responsive luciferase reporter in Sufu-/- cells. Type of experiment: cell-based, mouse. To be noted: 10 µM, 72 h. As to the method:
(§1) NIH3T3-E1 and Sufu^−/− cells cultured in 24-well plates at 90% confluence were transiently transfected with 0.1 µg of Gli response-element reporter (pGL3b-8xGli-Luciferase) plasmid, and 10 ng of pTK-Renilla-Luciferase plasmid with or without co-transfection with 10 ng of Gli1 overexpression vector, pSRα-Gli1, as previously described using Lipofectamine LTX Plus transfection reagent (Invitrogen). Twenty-four h after transfection, cells were treated with test agents for 72 h. Then the firefly and Renilla luciferase activities were measured using a dual luciferase kit (Promega, Madison, WI, USA) and a GloMax-96 Microplate Luminometer. The firefly luciferase activities were normalized to the Renilla luciferase activities. Data are reported as the mean of triplicate determinations ± SD.
Figure 5 Oxy186 acts downstream of Smo. (a) Sufu^−/− mouse embryonic fibroblast (MEF) cells were treated with DMEM containing 10% FBS in the presence or absence of Oxy186 (10 µM). After 72 h, RNA was extracted and analyzed by Q-RT-PCR for the expression of Hh target genes Gli1, Ptch1, and Hip, normalized to Oaz1 expression. […] Luciferase activity was measured and normalized to the Renilla luciferase activity. […]
On the technique in general: In a reporter assay the amount or activity of a reporter protein is the signal.

In experiment [2] the test system is Hh pathway target genes Gli1, Ptch1, and Hip in Sufu-/- mouse embryonic fibroblasts. Nature of the experiment: Inhibition of Hh target gene expression in Sufu-/- MEFs, Q-RT-PCR. It is filed as cell-based. The settings on record: 10 µM, 72 h. The source says: NIH3T3-E1 fibroblasts were obtained from ATCC (Manassas, VA) and cultured, as previously described. CAPAN-1 and PANC-1 human pancreatic cancer cells were obtained from ATCC and cultured in Dulbecco’s Modified Eagle Medium (DMEM) containing 10% heat-inactivated fetal bovine serum (FBS) (Hyclone Laboratories, Logan, UT, USA) and antibiotics, as previously described. The human lung cancer cell lines A549 and H2030 were obtained from ATCC and cultured in RPMI-1640 containing 10% FBS. The human hepatoma cell line HepG2 was obtained from ATCC and cultured in DMEM containing 10% FBS. Mouse embryonic fibroblasts (MEFs) from suppressor of fused (Sufu) null mice (Sufu^−/−) were provided by Dr. Philip Beachy of Stanford University and cultured in DMEM containing 10% FBS. […]
Total RNA was extracted with the RNeasy Plus Mini Kit from Qiagen, according to the manufacturer’s instructions. […] The cDNAs were then mixed with Qi SYBR Green Supermix (Bio-Rad, Hercules, CA, USA) for quantitative RT-PCR assay using a Bio-Rad I-cycler IQ quantitative thermocycler. […] Fold changes in gene expression were calculated using the ΔΔCt method. […]
Figure 5 Oxy186 acts downstream of Smo. […] After 72 h, RNA was extracted and analyzed by Q-RT-PCR for the expression of Hh target genes Gli1, Ptch1, and Hip, normalized to Oaz1 expression. […] Luciferase activity was measured and normalized to the Renilla luciferase activity. […]

Experiment [3] has as its system 8XGliBS-luciferase reporter responsive to Gli1 in NIH3T3-E1 cells. Nature of the experiment: CM-induced 8XGliBS-luciferase reporter assay. The settings on record: 72 h treatment. It is filed as cell-based, mouse. As to the method:
as §1
Figure 3 Inhibition of ligand-induced Hedgehog signaling. NIH3T3 cells were pretreated for 2 h with the oxysterols or various inhibitors, as indicated, in DMEM containing 5% FBS. Next, cells were treated with CAPAN-1 conditioned medium (CM) in the absence or presence of oxysterols or inhibitors. After 72 h, RNA was extracted and analyzed by Q-RT-PCR for the expression of Hh target genes Gli1 (a,b,d) and Ptch1 (c), and normalized to Oaz1 expression. […] Luciferase activity was measured and normalized to the Renilla luciferase activity. […]

For `C[C@]12CC[C@H](O)C[C@@H]1CC[C@@H]1[C@@H]2CC[C@@]2(C)[C@H]1CC[C@@H]2[C@](C)(O)CCc1ccc(F)cc1` [Oxy186, (3S,5S,8R,9S,10S,13S,14S,17S)-17-((R)-4-(4-fluorophenyl)-2-hydroxybutan-2-yl)-10,13-dimethylhexadecahydro-1H-cyclopenta[a]phenanthren-3-ol], the Anti-proliferative effect entry with H2030 cells (96 h) is on record as “significant anti-proliferative effect”. For the same compound, in the experiment with H2030 cells (Homo sapiens, NCI-H2030, 96 h, read-out: IC50 for inhibition of cell proliferation), the IC50 was determined as 3.1 µM. Also, the “Inhibition of Gli responsive luciferase reporter activity (endogenous Gli)” value in experiment [1] is listed as “significantly inhibited”. Also, the “Inhibition of high baseline expression of Hh pathway target genes Gli1, Ptch1, and Hip” value in experiment [2] is “significant inhibition”. The “Inhibition of CM-induced 8XGliBS-luciferase reporter activity” value in experiment [3] was “significantly inhibited”.
